Like-named read-outs stand apart in the source and are kept apart here.
Experiments:
[1] = test system: HIV; conditions: isomeric adenine nucleosides with 2′-α-fluoro atom; cited from earlier work
[2] = test system: HIV-1; conditions: read-out: Anti-HIV-1 activity EC50; PBM cells; taken from literature; cited from earlier work
[3] = test system: human PBM cells; conditions: cited from earlier work
[4] = test system: HIV-1; assay: Anti-HIV-1 activity in human PBM cells; type: cell-based; conditions: primary human PBM cells; for EC50: read-out: Anti-HIV-1 activity EC50; for EC90: read-out: Anti-HIV-1 activity EC90
[5] = test system: human PBM cells
[6] = test system: Vero cells
[7] = test system: HCV; assay: Anti-HCV activity in replicon assay Huh7 cells; type: cell-based, hepatitis C virus; conditions: for EC50: read-out: Anti-HCV activity EC50; for EC90: read-out: Anti-HCV activity EC90
[8] = test system: Huh-7 Replicon cells; assay: Toxicity in Huh-7 Replicon cells; conditions: read-out: CC50 (toxicity in Huh-7 Replicon cells); replicon assay Huh7 cells
[9] = test system: CEM cells

| SMILES | antiviral activity [1] | EC50 [2] [µM] | CC50 [3] [µM] | EC50 [4] [µM] | EC90 [4] [µM] | CC50 [5] [µM] | CC50 [6] [µM] | EC50 [7] [µM] | EC90 [7] [µM] | CC50 [8] [µM] | CC50 [9] [µM] |
| --- | --- | --- | --- | --- | --- | --- | --- | --- | --- | --- | --- |
| Nc1ncnc2c1ncn2[C@@H]1O[C@H](CO)[C@@H](F)[C@H]1F [2′,3′-dideoxy-2′,3′-difluoro–adenosine] | without antiviral activity |  |  |  |  |  |  |  |  |  |  |
| Nc1ncnc2c1ncn2[C@@H]1O[C@H](CO)C[C@H]1F [2′-α-FddA, 9-(2′,3′-dideoxy-2′-fluoro-β-D-erythro-pentofuranosyl)adenine] | without antiviral activity |  |  |  |  |  |  |  |  |  |  |
| Nc1ncnc2c1ncn2[C@@H]1O[C@H](CO)C[C@@H]1F [2′-β-FddA, lodenosine] |  | 4.4 | > 100 |  |  |  |  |  |  |  |  |
| Cc1cn([C@H]2C[C@H](N=[N+]=[N-])[C@@H](CO)O2)c(=O)[nH]c1=O [AZT, reference compound] |  |  |  | 0.0026 | 0.01 | > 100 | 56 |  |  |  |  |
| C[C@@]1(O)[C@H](O)[C@@H](CO)O[C@H]1n1ccc(N)nc1=O [Compound 2-C-Me-C, reference compound] |  |  |  |  |  |  |  | 1.3 | 5.4 | > 10 |  |
| Nc1ncnc2c1ncn2[C@@H]1O[C@H](CO)[C@@H](F)[C@@H]1F [Compound 20, 9-(2′,3′-Dideoxy-2′,3′-difluoro-β-D-arabinofuranosyl)adenine] |  |  |  | 0.72 | 10.3 | > 100 | > 100 | > 10 | > 10 | > 10 | > 100 |
| Nc1nc(Cl)nc2c1ncn2[C@@H]1O[C@H](CO)[C@@H](F)[C@@H]1F [Compound 22, 2-chloro-9-(2′,3′-dideoxy-2,3-difluoro-β-D-arabinofuranosyl)adenine] |  |  |  | 14.1 | 46.3 | 13.6 | > 100 | > 10 | > 10 | > 10 | 70.2 |

Reference: PMC7732020 (Nucleosides, nucleotides & nucleic acids, 2009)
